Measurements as given in patent publication US4612329A, “Pharmaceutical alpha-aminoalkyl-alpha-alkylphenylacetonitriles” (Hokuriku Pharmaceutical Co., Ltd., priority 1984, dated 1986).

Tested on: aconitine-induced arrhythmias
Assay: Anti-arrhythmic action (aconitine-induced arrhythmias in mice)
Format: in vivo, male ddY mice
Conditions: 100 mg/kg orally 60 min prior to aconitine infusion, percent increase of aconitine needed to induce arrhythmias
Method: 2. Anti-arrhythmic action (aconitine-induced arrhythmias in mice)
Male ddY mice weighing about 30 g were anesthetized with pentobarbital sodium given intraperitoneally. Aconitine (1.32 μg/min) was continuously infused into a tail vein 15 min posterior to pentobarbital sodium administration. […] The amount of aconitine needed to induce arrhythmias was calculated from the time taken to the onset of the first premature ventricular systoles. The test compounds (100 mg/kg) were orally given 60 min prior to aconitine infusion. Their relative potencies to quinidine were compared by the percent increase of aconitine needed to induce arrhythmias.

Compound	Anti-arrhythmic action, relative potency (quinidine = 1)
COc1cc(C(C#N)(CCCNCCOc2ccccc2)C(C)C)cc(OC)c1OC.Cl (stereo not drawn) [Example 3, Alpha-isopropyl-alpha-[3-(2-phenoxyethylamino)propyl]-3,4,5-trimethoxyphenylacetonitrile Hydrochloride]	2.01
COc1ccccc1OCCCNCCC(C#N)(c1cc(OC)c(OC)c(OC)c1)C(C)C.Cl (stereo not drawn) [Example 6, Alpha-isopropyl-alpha-[2-[N-[3-(2-methoxyphenoxy)propyl]-amino]ethyl]-3,4,5-trimethoxyphenylacetonitrile Hydrochloride]	2.02
COc1cc(C(C#N)(CCCNCCCOc2ccccc2N)C(C)C)cc(OC)c1OC (stereo not drawn) [Example 11, Alpha-isopropyl-alpha-[3-[N-[3-(2-aminophenoxy)propyl]amino]-propyl]-3,4,5-trimethoxyphenylacetonitrile]	1.51
COc1cccc(C(C#N)(CCCNCCOc2ccccc2OC)C(C)C)c1 (stereo not drawn) [Example 19]	2.28
COc1cccc(C(C#N)(CCCN(C)CCOc2ccccc2OC)C(C)C)c1 (stereo not drawn) [Example 20]	1.20
COc1cccc(C(C#N)(CCCNCCCOc2ccccc2OC)C(C)C)c1 (stereo not drawn) [Example 25]	2.34
COc1cccc(C(C#N)(CCCN(C)CCCOc2ccccc2OC)C(C)C)c1 (stereo not drawn) [Example 26]	1.60
COc1ccc(C(C#N)(CCCNCCCOc2ccccc2OC)C(C)C)cc1 (stereo not drawn) [Example 27]	1.43
COc1ccc(C(C#N)(CCCNCCCOc2ccccc2OC)C(C)C)cc1OC (stereo not drawn) [Example 57]	1.52
COc1ccc(C(C#N)(CCCN(C)CCCOc2ccccc2OC)C(C)C)cc1OC (stereo not drawn) [Example 58]	1.64
COc1ccccc1OCCNCCCC(C#N)(c1cc(OC)c(OC)c(OC)c1)C(C)C (stereo not drawn) [Example 84, Alpha-isopropyl-alpha-[3-[N-[2-(2-methoxyphenoxy)ethyl]amino]propyl]-3,4,5-trimethoxyphenylacetonitrile]	2.52
COc1ccccc1OCCN(C)CCCC(C#N)(c1cc(OC)c(OC)c(OC)c1)C(C)C (stereo not drawn) [Example 85]	3.72
COc1ccccc1OCCNCCCC(C)(C#N)c1cc(OC)c(OC)c(OC)c1 (stereo not drawn) [Example 88]	1.34
COc1ccccc1OCCCNCCCC(C#N)(c1cc(OC)c(OC)c(OC)c1)C(C)C (stereo not drawn) [Example 118, Alpha-isopropyl-alpha-[3-[N-[3-(2-methoxyphenoxy)propyl]amino]propyl]-3,4,5-trimethoxyphenylacetonitrile]	2.65
COc1ccccc1OCCCN(C)CCCC(C#N)(c1cc(OC)c(OC)c(OC)c1)C(C)C (stereo not drawn) [Example 119]	2.24
CCCc1ccccc1OCCCNCCCC(C#N)(c1cc(OC)c(OC)c(OC)c1)C(C)C (stereo not drawn) [Example 122]	1.21
COc1cc(C(C#N)(CCCNCCCOc2ccc(N)cc2)C(C)C)cc(OC)c1OC (stereo not drawn) [Example 126]	1.03
COc1cc(C(C#N)(CCCNCCCOc2cccc(N)c2)C(C)C)cc(OC)c1OC (stereo not drawn) [Example 128]	2.01
COc1ccc(CCN(C)CCCC(C#N)(c2cc(OC)c(OC)c(OC)c2)C(C)C)cc1OC (stereo not drawn) [Gallopamil, reference compound]	0.30
CC(C)N(CCC(C(N)=O)(c1ccccc1)c1ccccn1)C(C)C (stereo not drawn) [disopyramide, reference compound]	0.97

Tested on: Alpha-receptor
Assay: Alpha-receptor blocking action (thoracic aorta, noradrenaline)
Design: species or system male rabbit
Conditions: rabbit thoracic aorta helical strip, Krebs-Henseleit, 37° C., compound applied 30 min prior
Method: 3. Alpha-receptor blocking action
The thoracic aorta was excised from male rabbit and helically cut. The helical strip was mounted in a tissue bath containing Krebs-Henseleit solution maintained at 37° C. A resting tension of 2.0 g was applied to the tissue. The change in tension, which was induced by cumulative application of noradrenaline, was isometrically measured by the FD-pickup. The tissue bath solution was bubbled with a mixture of 95% O2 -5% CO2. The test compounds were applied 30 min prior to cumulative application of noradrenaline. The degree of alpha-blocking action was expressed as the pA2 value.

Compound	Alpha-blocking action, pA2 value
COc1ccc(C(C#N)(CCCNCCOc2ccccc2OC)C(C)C)cc1OC.O=C(O)/C=C\C(=O)O (stereo not drawn) [Example 4, Alpha-isopropyl-alpha-[3-[N-[2-(2-methoxyphenoxy)ethyl]amino]-propyl]-3,4-dimethoxyphenylacetonitrile Maleate]	8.25
COc1ccc(C(C#N)(CCCNCCOc2ccccc2OC)C(C)C)cc1 (stereo not drawn) [Example 21]	8.02
COc1ccccc1OCCNCCCC(C#N)(c1cc(OC)c(OC)c(OC)c1)C(C)C (stereo not drawn) [Example 84, Alpha-isopropyl-alpha-[3-[N-[2-(2-methoxyphenoxy)ethyl]amino]propyl]-3,4,5-trimethoxyphenylacetonitrile]	8.42
COc1ccccc1OCCNCCCC(C)(C#N)c1cc(OC)c(OC)c(OC)c1 (stereo not drawn) [Example 88]	8.40
CCC(C#N)(CCCNCCOc1ccccc1OC)c1cc(OC)c(OC)c(OC)c1 (stereo not drawn) [Example 90, Alpha-ethyl-alpha-[3-[N-[2-(2-methoxyphenoxy)ethyl]amino]propyl]-3,4,5-trimethoxyphenylacetonitrile]	8.79
CCCC(C#N)(CCCNCCOc1ccccc1OC)c1cc(OC)c(OC)c(OC)c1 (stereo not drawn) [Example 91]	8.46
CCCCC(C#N)(CCCNCCOc1ccccc1OC)c1cc(OC)c(OC)c(OC)c1 (stereo not drawn) [Example 92]	8.57
COc1ccccc1OCCNCCCC(C#N)(CC(C)C)c1cc(OC)c(OC)c(OC)c1 (stereo not drawn) [Example 93, Alpha-isobutyl-alpha-[3-[N-[2-(2-methoxyphenoxy)ethyl]amino]propyl]-3,4,5-trimethoxyphenylacetonitrile]	8.67
COc1ccc(CCN(C)CCCC(C#N)(c2cc(OC)c(OC)c(OC)c2)C(C)C)cc1OC (stereo not drawn) [Gallopamil, reference compound]	6.11
COc1ccc(CCN(C)CCCC(C#N)(c2ccc(OC)c(OC)c2)C(C)C)cc1OC (stereo not drawn) [Verapamil, reference compound]	6.41
